Entries after “also recorded” stand apart in the source; their conditions may differ.
Legend:
[1] = In vitro non-radioactive metabolite analysis and clearance in MLM; assay type: in vitro ADME, mouse
Experimental: (§1) Microsomal incubations were performed using a Hamilton Microlab Star liquid handling workstation (Hamilton Robotics, Bonaduz, Switzerland). Test compound 2 (final concentration 1 or 10 μM, 1% DMSO) was pre-incubated at 37 °C for 10 min in MLM or HLM (final concentration 1 mg/ml prepared in 10 mM PBS). Reactions were initiated by the addition of NADPH (final concentration 1 mM). Aliquots were removed from each incubation and quenched in 3 volumes of ice-cold MeOH containing internal standard olomoucine (500 nM in MeOH) at − 1, 0, 5, 15, 30 and 60 min. Incubations were conducted in singlicate. […] Terminated incubations were centrifuged at 3700 rpm at 4 °C for 30 min and supernatant taken for analysis. Microsomal incubations were analysed by liquid chromatography-tandem mass spectrometry (LC-MS/MS). This consisted of a Dionex Ultimate 3000 UHPLC system coupled to a ThermoScientific Q Exactive Plus orbitrap mass spectrometer (Thermo Fisher Scientific Inc., Waltham, USA). Chromatographic separation was achieved using an Acquity UPLC HSS T3 column (1.8 μm, 100 × 2.1 mm) (Waters, Elstree, UK) at 50 °C and a binary mobile phase gradient at a flow rate of 0.4 ml/min. Initial LC conditions comprised 10% formic acid (0.1%) in water (A), 90% methanol (B). This was ramped to […] at 12 min. Sample analysis was by positive ion electrospray ionization. The capillary voltage was 3.5 kV. Full MS/dd-MS^2 (full MS scan followed by data dependent MS/MS) and Full MS/AIF (full MS scan followed by all ion fragmentation) workflows were used in combination. Full MS was performed at a resolution of 70,000, AGC target 1 e^6; dd-MS2 at a resolution of 17,5000, AGC target 1 e^5. LC-MS response (peak area of the analyte/peak area of internal standard) was fitted to a nonlinear single exponential model using software GraphPad Prism software (v6.07, GraphPad Software, Inc., La Jolla, USA). Elimination rate constant (k) was determined and intrinsic clearance, CLint, was calculated as CLint = (V.k)/mg protein where V is the incubation volume (μl) and mg protein is the mg microsomal protein in the incubation. Identification of metabolites in microsomal incubations and elucidation of their structures was undertaken with Compound Discoverer software (v2.0.0.303, Thermo Fisher Scientific Inc., Waltham, USA).

[2] = In vitro non-radioactive metabolite analysis and clearance in HLM; assay type: in vitro ADME, human
Experimental: as §1

GR = molecular target: T1, GR (Homo sapiens, UniProt P04150); experiment: PatHunter express CHO-K1 GR nuclear translocation assay; assay type: cell-based; details: CHO-K1 cells; 6 h; at 0.5 μM; dexamethasone positive control
T1 construct: host or cells: CHO-K1 (Chinese hamster ovary) cells
T1 sequence (P04150 1-777): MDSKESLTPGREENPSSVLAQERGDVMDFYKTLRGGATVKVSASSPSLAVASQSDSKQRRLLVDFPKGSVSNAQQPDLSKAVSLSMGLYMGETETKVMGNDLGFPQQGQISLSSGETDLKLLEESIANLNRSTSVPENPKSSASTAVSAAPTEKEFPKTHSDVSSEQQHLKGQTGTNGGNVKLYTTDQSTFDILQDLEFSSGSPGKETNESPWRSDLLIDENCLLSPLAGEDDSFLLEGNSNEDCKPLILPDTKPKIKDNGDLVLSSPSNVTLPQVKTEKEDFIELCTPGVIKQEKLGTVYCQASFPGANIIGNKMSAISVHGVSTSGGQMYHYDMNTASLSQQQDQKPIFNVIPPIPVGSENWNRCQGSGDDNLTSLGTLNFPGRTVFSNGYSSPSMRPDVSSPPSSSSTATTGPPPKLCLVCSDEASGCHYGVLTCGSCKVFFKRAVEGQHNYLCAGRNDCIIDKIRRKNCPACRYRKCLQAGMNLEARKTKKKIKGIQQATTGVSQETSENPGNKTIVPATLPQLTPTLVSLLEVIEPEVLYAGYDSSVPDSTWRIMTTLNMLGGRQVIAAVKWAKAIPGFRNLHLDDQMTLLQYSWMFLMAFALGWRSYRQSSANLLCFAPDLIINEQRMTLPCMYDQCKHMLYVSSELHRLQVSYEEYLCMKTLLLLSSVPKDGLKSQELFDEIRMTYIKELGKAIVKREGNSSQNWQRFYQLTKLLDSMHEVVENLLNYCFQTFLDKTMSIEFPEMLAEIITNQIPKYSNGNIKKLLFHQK
Experimental: Compound 2 was analysed for GR binding using the PatHunter® express CHO-K1 GR Nuclear Translocation assay (DiscoveRx™, Fremont, CA, USA). Reagents were thawed and equilibrated to room temperature prior to use. Dexamethasone standard (10 mM, 100% DMSO) was diluted and used to prepare 12 standards by 1:4 dilution. Test compound 2 was dissolved in 100% DMSO and diluted in serial 1:3 dilutions to a final concentration of DMSO (v/v) of 0.1%. CHO-K1 (Chinese hamster ovary) cells were seeded in a 96-well plate with CP reagent and incubated for 24 h at 37 °C, 5% CO2. Cells were then incubated with the Dexamethasone standard and compound 2 for 6 h at 37 °C, 5% CO2. Following incubation, signal was detected using the PathHunter® detection reagent provided in the kit and incubated in the dark for 1 h. The plate was read using a luminescence plate reader (Additional file 1: Figure S33).

CC1(C)OC(=S)Nc2ccc(-c3cccnc3F)cc21 [Compound 2, 6-(2-fluoropyridin-3-yl)-4,4-dimethyl-1H-benzo[d][1,3]oxazine-2(4H)-thione]
Metabolite identification by mass spectrometry in MLM ([1]; MLM incubation, LC-MS/MS): conversion of the thiocarbamate into oxocarbamate as the major metabolic pathway and highlighted oxidative defluorination
microsomal CLint ([1]; mouse, mouse liver microsomes, MLM 1 mg/ml, NADPH 1 mM, 37 °C): 1270 µL/min/mg
Metabolite identification by mass spectrometry in HLM ([2]; HLM incubation, LC-MS/MS): conversion of the thiocarbamate into oxocarbamate as the major metabolic pathway and highlighted oxidative defluorination
Clearance, fold slower in HLM than in MLM ([2]; HLM versus MLM): ca. 22 fold
microsomal CLint ([2]; human, human liver microsomes, HLM 1 mg/ml, NADPH 1 mM, 37 °C): 56 µL/min/mg
GR nuclear translocation response (GR): poor binder; also recorded: failed to elicit a response

From publication PMC6328429, “Synthesis of a benzoxazinthione derivative of tanaproget and pharmacological evaluation for PET imaging of PR expression” (EJNMMI Radiopharmacy and Chemistry, 2019)
